This note sets out measurements from article PMC12261321, “Inhibitors of the Bacterioferritin Ferredoxin Complex Dysregulate Iron Homeostasis and Kill and Biofilm-Embedded Cells” (ACS Infectious Diseases, 2025).

Common to all, as to format: cell-based
Data set [1] relates to P. aeruginosa PAO1. Nature of the data set: Pyoverdin secreted by P. aeruginosa PAO1 (fluorescence). The conditions noted are these: planktonic cells, 24 h; KM-5–25 80 μM, KM-5–35 60 μM, EB-5–73 40 μM, SB-17–140 80 μM. On the procedure:
Dete rmination of pyoverdin secreted by P. aeruginosa PA O 1 . These experiments were conducted as previously reported13 with some modifications. Cells were cultured in modified M63 media (2 g / L ( N H 4)2SO4, 13.6 g/L KH2PO4 (Sigma Aldrich), 2 g/L glucose, 4 g/L cit ric acid, 5 g/ L technical grade casamino acids (B D scientific), 0.24 g/L MgSO4 (Alfa A esar), and 0.025% (w/v) HPMC, pH 7.0 adjusted with KOH) . Starter cultures in LB were diluted to OD600 = 0.0001 and cultured in a sh aker i ncubator (35 °C and 205 rpm) for 24 h, in the absen ce ( control) and in the presence of KM -5- 25 (80 μM), KM-5- 35 (60 μM), EB- 5- 73 (40 μM), and SB-17- 140 (80 μM); al l cell suspensions have 1.5% DMSO. 700 μ L of the culture wer e clarified by centrifugation (16,200 x g, 10 min, 4 °C), diluted 10-fold in PBS and then analyzed by acquiring fluorescence emission spectra (410- 600 nm) with excitation at 400 nm (10 nm slit width) and emission at λ max= 430 nm (10 nm slit width) using an Ag ilent (Cary Eclipse) fluorescen ce sp ectrophotometer. The flu orescen ce intensity of th e treated sample (FI)Tr and that of the untreated control (FI)Un was normalized to the corresponding OD600 and the ratio (FI/OD600)Tr / (F I/ OD600)Un is […]
The determination for each of the compounds was carri ed out in 5 biological replicates. […]

Data set [2] has as its system A. baumannii 5075. Nature of the data set: Siderophores secreted by A. baumannii (CAS assay). The conditions noted are these: 5075, 20 h, M63 without citrate; compounds 40 μM, SB-17–140 80 μM. The method, then:
Unlike pyoverdine, the siderophores secreted by are not fluorescent. Consequently, to measure siderophore secretion from planktonic cultures of , we decided to utilize the Chrome azurol S (CAS) assay, a well-known universal colorimetric method used to detect siderophores. , To this end, planktonic cells of 5075 were cultured for 20 h in the presence of sub-MICs of a representative number of inhibitors in M63 media not containing citrate, followed by analysis of the cell-free spent media by the CAS assay. […] These observations support the hypothesis that active compounds engage their target (Ab Bfr) and block the Ab Bfr–Bfd complex in , trapping iron in Ab Bfr and causing intracellular iron limitation, which in turn elicits a siderophore overproduction phenotype. […]
reported13 with some modifications. Cells were cultured in modified M63 media (2 g / L ( N H 4)2SO4, 13.6 g/L KH2PO4 (Sigma Aldrich), 2 g/L glucose, 4 g/L cit ric acid, 5 g/ L technical grade casamino acids (B D scientific), 0.24 g/L MgSO4 (Alfa A esar), and 0.025% (w/v) HPMC, pH 7.0 adjusted with KOH) . […]
Determination of Siderophores Secreted by A. baumannii . The chromo azurol S (CAS) solution was prepared as previously reported18 with some modifications. The blue dye solution (0.6 g/L CAS ( ACROS Organics), 100 μM FeCl3·6H2O, and 0.73 g/L hexadecyltrimethylammonium bromide (HDTMA, ACROS Organics) was autoclaved and stored in the dark. The MM9-PIPES buffer solution (3 g/L KH2PO4, 5 g/L NaCl, 10 g/L NH4C l, 32.24 g/L piperazine -1,4-bis-2- ethanesulfonic acid (PIPES , Sigma Aldrich), pH 6.75) was sterilized using a 0.22 µm syringe filter (VWR). Prior to every experimen t, blue dye solution (0.5 mL) was mixed with 4.5 mL of MM9-PIPES solution. An overnight culture of A. baumannii 5075 was diluted to OD600 = 0.0001 with modified M63 media (no citric acid) supplemented with 4 μ M Fe and transferred to a 96-well plate, wh ere it was cul tured for 20 […]
h at 35 °C and 205 cpm i n a plate reader (Synergy H1, BioTek). The treated cell cultures contained compound at the concentrations indicat ed in the caption of Figure 8B and […], whereas the untreated control contained 0.1% DMSO. 700 μ L was centrifuged at 16,200 x g for 10 min. 200 μ L of the clarified supern atant was mixed with the 200 μL of CAS solution and allowed to incubate at room temperatu re in the dark for 2 h prior to recording a UV-Vis spectrum (200 nm to 800 nm) in a 1.0 cm quartz cuvette with the aid of a Cary 60 UV-Vi s spectrophotometer (Agilent Technologies). The fold- change in siderophore secreted by the treated vs. untreated cells was calculated using equation S3, where Tr indicates treated cells, Un indicates DMSO control cells, […]
solution of fresh modified M63 media. The experiment was carried out in at least five biological replicates for […]
FFggFFFF cch aammggaa =(ΔΔAA 630 )UUii (S3)
Measurement of Dissociation Constant (Kd) R ecombinant Pa BfrB was expressed in E. coli and purified as previously reported.19 Apo-BfrB (devoid of heme) was utilized for the measurements to prevent heme-driven fluorescence quenching. A 0.5 mL solution contai ning 0.01 µM apo Pa-BfrB in PBS (pH = 7.4) containing0.5% DMSO was plac ed into a 1 cm quartz cuvette wh ere it was titrated with aliq uots of compound dissolved in a 50% (v/v) PBS/DMSO solution. The fluorescence quenching brought by the addition of each aliquot was monitored with the aid of an Agilent Cary Fluorometer , with excitation at 280 nm, emission at 320- 470 nm, 10 x10 nm slit width, and an average of 5 scans per spectrum. Th e binding assay included at least 8 aliquots spanning from ~ 0.1 […]
A control titration was carried out by titrati ng compound into PBS buffer. The Kd was cal culated by fitting the data to equation S4, w here Fb is the fraction bound and Fmax is the fraction bound at saturating compound concentration.
FFbb = FFmmmmmm ? [ccccmmccccccmmcc ]? (S4) […]

Data set [3] relates to A. baumannii 5075. Nature of the data set: Compound intracellular accumulation in A. baumannii 5075. The conditions noted are these: ‡ treatment with 15 µM compound.

Each structure is given as a SMILES string. “Also recorded” adds a separate entry of the source.

Turning to `O=C1NC(=O)c2c(NCc3cccc(Br)c3O)cccc21` [EB-5-73], in data set [1], the “pyoverdine secretion, (FI/OD600)Tr/(FI/OD600)Un” value (“pyoverdine secretion” for short) is reported as “did not secrete more pyoverdine than the untreated control cultures; also recorded: secrete the same amount of pyoverdine as the untreated control”. The “siderophore secretion, ΔA 630 nm normalized to OD600” value in data set [2] is recorded as “do not elicit a siderophore overproduction phenotype”. For `O=C1NC(=O)c2c(NCc3cc(Br)ccc3O)cccc21` [KM-5-35, 4-((5-Bromo-2-hydroxybenzyl)amino)isoindoline-1,3-dione], in data set [1], the “pyoverdine secretion” value was “overproduction of pyoverdine; also recorded: pyoverdine overproduction phenotype”. In addition, the “siderophore secretion, ΔA 630 nm normalized to OD600” value in data set [2] was “secrete significantly higher levels of siderophore”. As for `O=C1NC(=O)c2c(NCc3cc(Cl)ccc3O)ccc(Br)c21` [SB-16-51], the “Intracell. Accum, A. baumannii 5075” value in data set [3] was determined as 2137 ± 311 nmol/1012 CFU. As for `O=C1NC(=O)c2c(NCc3ccc(Br)cc3O)cccc21` [EB-5-61], in data set [2], the “siderophore secretion, ΔA 630 nm normalized to OD600” value is on record as “secrete significantly higher levels of siderophore”. Turning to `O=C1NC(=O)c2c(NCc3cc(Cl)ccc3O)cccc21` [KM-5-25, 4-((5-Chloro-2-hydroxybenzyl)amino)isoindoline-1,3-dione], the “pyoverdine secretion” value in data set [1] was “overproduction of pyoverdine; also recorded: pyoverdine overproduction phenotype”. The “siderophore secretion, ΔA 630 nm normalized to OD600” value in data set [2] was “secrete significantly higher levels of siderophore”.

For `O=C1NC(=O)c2c(NCc3cc(Br)ccc3O)ccc(Cl)c21` [SB-16-124], the “Intracell. Accum, A. baumannii 5075” value in data set [3] amounted to 2626 ± 389 nmol/1012 CFU. As to `O=C1NC(=O)c2c(NCc3cccc4c3CCN4)cccc21` [SB-17-140], the “pyoverdine secretion” value in data set [1] is “did not secrete more pyoverdine than the untreated control cultures; also recorded: secrete the same amount of pyoverdine as the untreated control”. Also, the “siderophore secretion, ΔA 630 nm normalized to OD600” value in data set [2] was “do not elicit a siderophore overproduction phenotype”. With `O=C1NC(=O)c2c(NCc3c(O)cccc3Cl)cccc21` [KM-5-29], the “siderophore secretion, ΔA 630 nm normalized to OD600” value in data set [2] was “secrete significantly higher levels of siderophore”. Regarding `Cc1cc(Cl)cc(CNc2cccc3c2C(=O)NC3=O)c1O` [SB-16-156], the “Intracell. Accum, A. baumannii 5075” value in data set [3] amounted to 671 ± 89 nmol/1012 CFU.

On to `Cc1cc(Br)cc(CNc2cccc3c2C(=O)NC3=O)c1O` [SB-16-106], for which, in data set [3], the “Intracell. Accum, A. baumannii 5075” value is on record as 782 ± 11 nmol/1012 CFU.

As to `CC(C)(C)c1ccc(O)c(CNc2cccc3c2C(=O)NC3=O)c1` [SB-16-53], the “Intracell. Accum, A. baumannii 5075” value in data set [3] amounted to 327 ± 17 nmol/1012 CFU.
